Assay results reported in patent US20250163104A1, “MACROCYCLIC IMMUNOMODULATORS” (priority 2021, published 2025).
Where a SMILES comes first, the peptide text is derived from it. Bridges are numbered along the chain shown (N, C = ends). [ ]: non-standard residue; d: D form. The star is where a group is joined. ξ: configuration not given here. Phe(4-COOH) = N[C@@H](Cc1ccc(C(=O)O)cc1)C(=O)O; Bip = N[C@@H](Cc1ccc(-c2ccccc2)cc1)C(=O)O; Phe(4-CN) = N#Cc1ccc(C[C@H](N)C(=O)O)cc1; Ala(2-furyl) = N[C@@H](Cc1ccco1)C(=O)O; Phe(3-F) = N[C@@H](Cc1cccc(F)c1)C(=O)O; Phe(3-Me) = Cc1cccc(C[C@H](N)C(=O)O)c1; Val(3-OH) = CC(C)(O)[C@H](N)C(=O)O; 3Pal = N[C@@H](Cc1cccnc1)C(=O)O; Cha = N[C@@H](CC1CCCCC1)C(=O)O; Cit = NC(=O)NCCC[C@H](N)C(=O)O; Thr(3ξ) = CC(O)[C@H](N)C(=O)O; hSer = N[C@@H](CCO)C(=O)O; Carboxymethyl = O=C(O)C*; Nle = CCCC[C@H](N)C(=O)O; Orn = NCCC[C@H](N)C(=O)O; Pra = C#CC[C@H](N)C(=O)O; Dab = NCC[C@H](N)C(=O)O; Nva = CCC[C@H](N)C(=O)O; Dap = NC[C@H](N)C(=O)O; Propargyl = C#CC*

molecular target: T1, human PD-1 / PD-L1-Ig binding on Jurkat cell line over-expressing human PD-1 (Jurkat-PD-1) (Homo sapiens, UniProt Q15116); assay: Jurkat-PD-1 Cell Binding High-Content Screening Assay (CBA); format: cell-based; conditions: Jurkat-PD-1 cells, PE-labeled PD-L1-Ig 20 nM final; read-out: Jurkat HPD1_PDL1 IC50
T1 construct: expressed in transfected cells; host or cells: Jurkat
Method in brief: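 Cell-bound PE-labeled PD-L1-Ig (20 nM final, 1 h) measured by high-content imaging after fixation and Hoechst 33342 counterstain. Compound was applied first for 2 h at 37° C. to Jurkat cells over-expressing human PD-1 in DMEM with 10% FCS.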

T1 sequence (Q15116 25-288): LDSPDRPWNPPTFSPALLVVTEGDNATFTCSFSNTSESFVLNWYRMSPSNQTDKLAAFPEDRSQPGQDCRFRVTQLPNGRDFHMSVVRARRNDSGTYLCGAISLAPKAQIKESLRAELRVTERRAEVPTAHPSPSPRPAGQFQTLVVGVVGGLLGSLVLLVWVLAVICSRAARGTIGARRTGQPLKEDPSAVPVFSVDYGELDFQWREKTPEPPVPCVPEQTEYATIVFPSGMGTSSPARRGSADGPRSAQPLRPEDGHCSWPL

Structure (SMILES) | IC50
CC(C)C[C@@H]1NC(=O)[C@H](CCN)NC(=O)[C@@H](CC(C)C)NC(=O)[C@H](CCCCN)NC(=O)[C@H](C(C)C)NC(=O)[C@H](Cc2ccc(-c3ccccc3)cc2)NC(=O)[C@H](C(C)C)NC(=O)[C@H](Cc2c[nH]c3ccccc23)NC(=O)[C@H](CC(=O)O)NC(=O)[C@H](Cc2ccc(O)cc2)NC(=O)[C@H](CC(N)=O)NC(=O)CSC[C@@H](C(=O)N[C@@H](C)C(N)=O)NC(=O)[C@H]([C@@H](C)O)NC(=O)[C@H](C(C)C)NC1=O [Compound 1025] ({CH2CO}-NYDWV[Bip]VK[dL][Dab]LVTCA-NH2; thioether N-14) | 11 nM
Cc1cccc(C[C@@H]2NC(=O)[C@H](CC(=O)O)NC(=O)[C@H](Cc3ccc(OCC(=O)O)cc3)NC(=O)[C@H](Cc3ccco3)NC(=O)CSC[C@@H](C(=O)N[C@@H](CCN)C(N)=O)NC(=O)[C@H](Cc3cnc[nH]3)NC(=O)[C@H](C(C)(C)O)NC(=O)[C@H](CC3CCCCC3)NC(=O)[C@H](CCN)NC(=O)[C@@H](CC(C)C)NC(=O)[C@H](CCCN)NC(=O)[C@H](Cc3ccc(OCC(=O)O)cc3)NC(=O)[C@H](Cc3ccc(-c4ccccc4)cc3)NC(=O)[C@H](Cc3ccc(OCC(=O)O)cc3)NC2=O)c1 [Compound 2646] ({CH2CO}-[Ala(2-furyl)]Y(Carboxymethyl)D[Phe(3-Me)]Y(Carboxymethyl)[Bip]Y(Carboxymethyl)[Orn][dL][Dab][Cha][Val(3-OH)]HC[Dab]-NH2; thioether N-14) | 8.3 nM
CC(C)C[C@@H]1NC(=O)[C@H](Cc2c[nH]c3ccccc23)NC(=O)[C@H](CC(=O)O)NC(=O)[C@H](Cc2ccc(O)cc2)NC(=O)[C@H](Cc2ccccc2)NC(=O)CSC[C@@H](C(=O)NCC(N)=O)NC(=O)[C@H](CO)NC(=O)[C@H](C(C)C)NC(=O)[C@H](CC(C)C)NC(=O)[C@H](CCN)NC(=O)[C@@H](C)NC(=O)[C@H](CN)NC(=O)[C@H](C(C)C)NC(=O)[C@H](Cc2ccc(-c3ccccc3)cc2)NC1=O [Compound 1098] ({CH2CO}-FYDWL[Bip]V[Dap][dA][Dab]LVSCG-NH2; thioether N-14) | 115 nM
CC(C)C[C@H]1NC(=O)[C@H](CCCN)NC(=O)[C@H](CCC(=O)O)NC(=O)[C@H](Cc2ccc(-c3ccccc3)cc2)NC(=O)[C@H](C(C)C)NC(=O)[C@H](Cc2c[nH]c3ccccc23)NC(=O)[C@H](CCO)NC(=O)[C@H](Cc2ccc(OCC(=O)O)cc2)NC(=O)[C@H](CN)NC(=O)CSC[C@@H](C(=O)N[C@@H](C)C(N)=O)NC(=O)[C@H]([C@@H](C)O)NC(=O)[C@H](C(C)C)NC(=O)[C@H](CC2CCCCC2)NC(=O)[C@H](CCN)NC1=O [Compound 1499] ({CH2CO}-[Dap]Y(Carboxymethyl)[hSer]WV[Bip]E[Orn][dL][Dab][Cha]VTCA-NH2; thioether N-14) | 663 nM
CC(C)C[C@@H]1NC(=O)[C@H](Cc2c[nH]c3ccccc23)NC(=O)[C@H](CC(=O)O)NC(=O)[C@H](Cc2ccc(OCC(=O)O)cc2)NC(=O)[C@H](Cc2ccc(OCC(=O)O)cc2)NC(=O)CSC[C@@H](C(=O)NCC(N)=O)NC(=O)[C@H](CO)NC(=O)[C@H](C(C)C)NC(=O)[C@H](CC2CCCCC2)NC(=O)[C@H](CCN)NC(=O)[C@@H](CC(C)C)NC(=O)[C@H](CCCN)NC(=O)[C@H](C(C)C)NC(=O)[C@H](Cc2ccc(-c3ccccc3)cc2)NC1=O [Compound 1404] ({CH2CO}-Y(Carboxymethyl)Y(Carboxymethyl)DWL[Bip]V[Orn][dL][Dab][Cha]VSCG-NH2; thioether N-14) | 5.1 nM
CC(C)C[C@H]1NC(=O)[C@H](CCCN)NC(=O)[C@H](CCCNC(N)=O)NC(=O)[C@H](Cc2ccc(-c3ccccc3)cc2)NC(=O)[C@H](C(C)C)NC(=O)[C@H](Cc2c[nH]c3ccccc23)NC(=O)[C@H](CC(=O)O)NC(=O)[C@H](Cc2ccc(C(=O)O)cc2)NC(=O)[C@H](Cc2ccc(OCC(=O)O)cc2)NC(=O)CSC[C@@H](C(=O)N[C@@H](C)C(N)=O)NC(=O)[C@H]([C@@H](C)O)NC(=O)[C@H](C(C)C)NC(=O)[C@H](Cc2cccc(F)c2)NC(=O)[C@H](CCN)NC1=O [Compound 1675] ({CH2CO}-Y(Carboxymethyl)[Phe(4-COOH)]DWV[Bip][Cit][Orn][dL][Dab][Phe(3-F)]VTCA-NH2; thioether N-14) | 20.9 nM
CC(C)C[C@H]1NC(=O)[C@H](CCCN)NC(=O)[C@H](C(C)C)NC(=O)[C@H](Cc2ccc(-c3ccccc3)cc2)NC(=O)[C@H](C(C)C)NC(=O)[C@H](Cc2c[nH]c3ccccc23)NC(=O)[C@H](CC(=O)O)NC(=O)[C@H](Cc2ccc(O)cc2)NC(=O)[C@H](CCC(N)=O)NC(=O)CSC[C@@H](C(=O)N[C@@H](C)C(N)=O)NC(=O)[C@H](C(C)O)NC(=O)[C@H](C(C)C)NC(=O)[C@H](CC2CCCCC2)NC(=O)[C@H](CCN)NC1=O (stereo partly drawn) [Compound 2525] ({CH2CO}-QYDWV[Bip]V[Orn][dL][Dab][Cha]V[Thr(3ξ)]CA-NH2; thioether N-14) | 17.3 nM
Cc1cccc(C[C@@H]2NC(=O)[C@H](CC(=O)O)NC(=O)[C@H](Cc3ccc(OCC(=O)O)cc3)NC(=O)[C@H](CN)NC(=O)CSC[C@@H](C(=O)N[C@@H](C)C(N)=O)NC(=O)[C@H]([C@@H](C)O)NC(=O)[C@H](C(C)C)NC(=O)[C@H](CC3CCCCC3)NC(=O)[C@H](CCN)NC(=O)[C@@H](CC(C)C)NC(=O)[C@H](CCCN)NC(=O)[C@H](CCCN)NC(=O)[C@H](Cc3ccc(-c4ccccc4)cc3)NC(=O)[C@H](C(C)C)NC2=O)c1 [Compound 1311] ({CH2CO}-[Dap]Y(Carboxymethyl)D[Phe(3-Me)]V[Bip][Orn][Orn][dL][Dab][Cha]VTCA-NH2; thioether N-14) | 16 nM
C#CC[C@H](NC(=O)[C@H](CCN)NC(=O)[C@@H]1CSCC(=O)N[C@@H](CCCN)C(=O)N[C@@H](Cc2ccc(C(=O)O)cc2)C(=O)N[C@@H](CC(=O)O)C(=O)N[C@@H](Cc2cccc(C)c2)C(=O)N[C@@H](Cc2ccc(C(=O)O)cc2)C(=O)N[C@@H](Cc2ccc(-c3ccccc3)cc2)C(=O)N[C@@H](Cc2ccc(C(=O)O)cc2)C(=O)N[C@@H](CCCN)C(=O)N[C@H](CC(C)C)C(=O)N[C@@H](CCN)C(=O)N[C@@H](CC2CCCCC2)C(=O)N[C@@H](C(C)(C)O)C(=O)N[C@@H](CO)C(=O)N1)C(N)=O [Compound 1846] ({CH2CO}-[Orn][Phe(4-COOH)]D[Phe(3-Me)][Phe(4-COOH)][Bip][Phe(4-COOH)][Orn][dL][Dab][Cha][Val(3-OH)]SC[Dab][Pra]-NH2; thioether N-14) | 8.3 nM
CC(C)C[C@H]1NC(=O)[C@H](CCCN)NC(=O)[C@H](CCC(=O)O)NC(=O)[C@H](Cc2ccc(-c3ccccc3)cc2)NC(=O)[C@H](C(C)C)NC(=O)[C@H](Cc2c[nH]c3ccccc23)NC(=O)[C@H](CC(=O)O)NC(=O)[C@H](Cc2ccc(C#N)cc2)NC(=O)[C@H](CC(N)=O)NC(=O)CSC[C@@H](C(=O)N[C@@H](C)C(N)=O)NC(=O)[C@H]([C@@H](C)O)NC(=O)[C@H](C(C)C)NC(=O)[C@H](CC2CCCCC2)NC(=O)[C@H](CCN)NC1=O [Compound 2185] ({CH2CO}-N[Phe(4-CN)]DWV[Bip]E[Orn][dL][Dab][Cha]VTCA-NH2; thioether N-14) | 28.1 nM
CC(C)C[C@H]1NC(=O)[C@H](CCCN)NC(=O)[C@H](CCC(=O)O)NC(=O)[C@H](Cc2ccc(-c3ccccc3)cc2)NC(=O)[C@H](C(C)C)NC(=O)[C@H](CCc2ccccc2)NC(=O)[C@H](CC(=O)O)NC(=O)[C@H](Cc2ccc(OCC(=O)O)cc2)NC(=O)[C@H](CN)NC(=O)CSC[C@@H](C(=O)N[C@@H](C)C(N)=O)NC(=O)[C@H]([C@@H](C)O)NC(=O)[C@H](C(C)C)NC(=O)[C@H](CC2CCCCC2)NC(=O)[C@H](CCN)NC1=O [Compound 2155] | 49.3 nM
CCCC[C@@H]1NC(=O)[C@H](CCCNC(=N)N)NC(=O)[C@@H](CC(C)C)NC(=O)[C@H](CCCN)NC(=O)[C@H](CCCNC(N)=O)NC(=O)[C@H](Cc2ccc(-c3ccccc3)cc2)NC(=O)[C@H](C(C)C)NC(=O)[C@H](Cc2c[nH]c3ccccc23)NC(=O)[C@H](CC(=O)O)NC(=O)[C@H](Cc2ccc(O)cc2)NC(=O)[C@H](Cc2ccc(OCC(=O)O)cc2)NC(=O)CSC[C@@H](C(=O)N[C@@H](C)C(N)=O)NC(=O)[C@H]([C@@H](C)O)NC(=O)[C@H](C(C)C)NC1=O [Compound 1176] ({CH2CO}-Y(Carboxymethyl)YDWV[Bip][Cit][Orn][dL]R[Nle]VTCA-NH2; thioether N-14) | 75.7 nM
C#CCOc1ccc(C[C@@H]2NC(=O)[C@H](Cc3cccc(C)c3)NC(=O)[C@H](CC(=O)O)NC(=O)[C@H](Cc3ccc(OCC(=O)O)cc3)NC(=O)[C@H](CCC)NC(=O)CSC[C@@H](C(=O)N[C@@H](CCN)C(N)=O)NC(=O)[C@H](CCC(=O)O)NC(=O)[C@H](C(C)C)NC(=O)[C@H](CC3CCCCC3)NC(=O)[C@H](CCN)NC(=O)[C@@H](CC(C)C)NC(=O)[C@H](CCCN)NC(=O)[C@H](Cc3ccc(OCC(=O)O)cc3)NC(=O)[C@H](Cc3ccc(-c4ccccc4)cc3)NC2=O)cc1 [Compound 1832] ({CH2CO}-[Nva]Y(Carboxymethyl)D[Phe(3-Me)]Y(Propargyl)[Bip]Y(Carboxymethyl)[Orn][dL][Dab][Cha]VEC[Dab]-NH2; thioether N-14) | 2.6 nM
CC(C)C[C@@H]1NC(=O)[C@H](CCN)NC(=O)[C@@H](CC(C)C)NC(=O)[C@H](CCCN)NC(=O)[C@H](CCCNC(N)=O)NC(=O)[C@H](Cc2ccc(-c3ccccc3)cc2)NC(=O)[C@H](C(C)C)NC(=O)[C@H](Cc2c[nH]c3ccccc23)NC(=O)[C@H](CC(=O)O)NC(=O)[C@H](Cc2ccc(C(=O)O)cc2)NC(=O)[C@H](Cc2cccnc2)NC(=O)CSC[C@@H](C(=O)N[C@@H](C)C(N)=O)NC(=O)[C@H]([C@@H](C)O)NC(=O)[C@H](C(C)C)NC1=O [Compound 1045] ({CH2CO}-[3Pal][Phe(4-COOH)]DWV[Bip][Cit][Orn][dL][Dab]LVTCA-NH2; thioether N-14) | 28.4 nM
